The values below come from patent US9115145B2, “Tocotrienol derivatives and associated methods” (FIRST TECH INTERNATIONAL LIMITED, priority 2011, dated 2015).

Read-outs that look alike come from different tables or passages of the source.

Test [1] concerns +SA mammary epithelial cells. The test is described as follows: MTT assay of +SA cells (antiproliferative activity). The test is classed as cell-based, mouse. Particulars: for antiproliferative activity against +SA mammary tumor cells (in words): described from FIG. 32 / text; for IC50: 24 hours treatment, read-out: IC50 antiproliferative activity against +SA mammary epithelial cells. Here is the method: The antiproliferative activities of Compounds 3-44 against the highly metastatic malignant +SA mammary epithelial cells were evaluated by MTT assay. Materials for the assay were purchased from Sigma Chemical Company (St. Louis, Mo.) unless otherwise stated. The highly malignant +SA mouse mammary epithelial cell line was serially passaged at subconfluent cell density. The +SA mammary tumor cell line was derived from an adenocarcinoma that developed spontaneously in a BALB/c female mouse. +SA cells were maintained in serum-free defined medium consisting of Dulbecco's modified Eagle's medium (DMEM)/F12 containing 5 mg/mL bovine serum albumin (BSA), 10 […], 100 U/mL soybean trypsin inhibitor, 100 U/mL penicillin G, 0.1 mg/mL streptomycin, […], and 10 ng/mL epidermal growth factor. For subculturing, cells were rinsed twice with sterile Ca2+ and Mg2+-free phosphate buffered saline (PBS) and incubated in 0.05% trypsin containing 0.025% EDTA in PBS for 5 min at 37° C. The released cells were centrifuged, resuspended in fresh media and counted using hemocytometer. A stock solution of the compounds was prepared in DMSO. Once dissolved, this solution was added to a small volume of sterile 10% BSA in water and incubated overnight at 37° C. This solution conjugated to BSA was used to prepare various concentrations (0-40 μM) of tocotrienol analogs. DMSO was added to all treatment media such that the final DMSO concentration was the same in all treatment groups within a given experiment and was always less than 0.1%. For cytotoxic studies, cells were seeded at a density of 5×10^4 cells/well (+SA cells) or 1×10^5 cells/well (CL-S1 cells) (6 wells/group) in 24-well culture plates and allowed to grow in their respective control media. After 3 days incubation period (approximately 70% confluency), cells were divided equally into various treatment groups and exposed to their respective treatments for a 24 hours incubation period. Following the 24 hours treatment period, cell viability was measured using the MTT assay.
+SA Mammary epithelial cell viable number was determined by a 3-(4,5-dimethylthiazol-2yl)-2,5-diphenyl tetrazolium bromide (MTT) colorimetric assay. On the assay day, treatment medium was replaced with fresh control medium containing 0.42 mg/mL MTT, and the cells in 24-well plates were incubated at 37° C. for 4 hours. Afterward, the medium was removed, and the MTT crystals were dissolved in isopropyl alcohol (1 mL/well). The optical density of each sample was read at 570 nm on a microplate reader (SpectraCount, Packard BioScience Company), against a blank prepared from cell-free cultures. The number of cells/well was calculated against a standard curve prepared by plating various concentrations of cells, as determined by hemocytometer, at the start of each experiment.
Differences among the various treatment groups in +SA cell cytotoxic studies were determined by analysis of variance (ANOVA) followed by Dunnett's t-test. The difference of P<0.05 was considered to be statistically significant as compared with vehicle-treated controls unless separately described. Linear regression analysis of treatment effects on viable cell number in growth and cytotoxicity studies was used to determine the 50% growth inhibition concentration (IC50) for individual treatments.

Test [2] relates to MDA-MB-231 human breast cancer cells. The test is described as follows: Wound-healing assay (cell migration). It is filed as cell-based. Here is the method: The highly metastatic human breast cancer MDA-MB-231 cells were cultured in RPMI 1640 medium containing 10 mM HEPES, 4 mM L-glutamine, 10% fetal bovine serum, penicillin (100 IU/mL), and streptomycin (50 μg/mL), and grown in a 5% CO2 atmosphere at 37° C. Cells were plated onto sterile 24-well and allowed to recover for a confluent cell monolayer formed in each well (>95% confluence). Wounds were then inflicted to each cell monolayer using a sterile 200 μL pipette tip. Media were removed, cells monolayers were washed twice with PBS, and then fresh media containing test compounds were added to each well. Test compounds were prepared in DMSO at 5 μM concentration and added to the plates, each in triplicate using DMSO as negative control. The incubation was carried out for 24 h under serum-starved conditions, after which media was removed and cells were fixed and stained using a staining composition sold under the trade name Diff Quick (Dade Behring Diagnostics, Aguada, Puerto Rico). The stain comprised a fixative reagent containing 1.8 mg/L triarylmethane dye in methyl alcohol; a first solution of 1 g/L xanthene dye, buffer, and sodium azide (0.01%) as preservative; and a second solution of 1.25 g/L Thiazine dye mixture (0.625 g/L azure A and 0.625 g/L methylene blue) and buffer. The number of cells migrated on the scratched wound were counted under the microscope in three or more randomly selected fields (magnification: 400×). Final results are expressed as mean±SEM per 400× field. The wound-healing assay is a simple method for the study of directional cell migration in vitro.
Compounds were tested for their ability to inhibit the migration of the highly metastatic MDA-MB-231 human breast cancer cells in the wound-healing assay using the procedure described above. Compounds 6, 10, 12, 13, 24, 26, 27, and 29 inhibited the migration of more than 50% of the human breast cancer cells MDA-MB-231 in the wound healing assay at 5 μM dose. […] The antimigratory activity of tocotrienols may be enhanced by a terminal aromatic functionality. The presence of electron withdrawing group, such as nitro in Compound 29, may eliminate the antiproliferative activity yet retain the antimigratory activity of the compound. While the electron donating groups, such as OH and OMe found in Compounds 23 and 26, respectively, retained both antiproliferative and antimigratory activities.
Utilizing similar procedures follow-up testing was conducted on a variety of compounds using a range of compound concentrations. The results of follow-up antimigratory testing are shown in FIG. 35B and Table III below with IC50 values calculated using statistical software.

Test [3] has as its system MDA-MB-231 human breast cancer cell line. The test is described as follows: MTT assay of MDA-MB-231 cells. The test is classed as cell-based. Particulars: Homo sapiens, media containing 5% fetal bovine serum. On the procedure:
(§1) MDA-MB-231 and MCF7 cells were plated at a density of 8×10^3 cells/well and 10^4 cells/well in 96-well culture plates, respectively. The compounds were fed in serum free media containing 5% and 1% fetal bovine serum for MDA-MB-231 and MCF7 cells, respectively.
In general terms: Tetrazolium assays rely on reduction of a dye to a coloured formazan, in cell work by metabolically active cells.

Test [4] relates to MCF 10A non-tumorigenic mammary epithelial cells. The test is described as follows: MTT assay of MCF10A cells. It is filed as cell-based, human. Particulars: for IC50: Homo sapiens. Here is the method: MCF 10A (ATCC cat # CRL-10317) normal human non-tumorigenic mammary epithelial cells were maintained in serum-free defined medium consisting of Dulbecco's modified Eagle's medium (DMEM)/F12 containing 5% horse serum, 1% penicillin/streptomycin, 0.5 μg/mL hydrocortisone, 100 ng/mL cholera toxin, 10 μg/mL insulin, and 20 ng/mL epidermal growth factor (rhEGF). For subculturing, cells were rinsed twice with sterile Ca2+ and Mg2+-free phosphate buffered saline (PBS) and incubated in 0.25% trypsin containing 0.025% EDTA in PBS for 5 min at 37° C. The released cells were centrifuged, re-suspended in fresh media and counted using a hemocytometer. For testing, MCF 10A cells were plated at a density of 10×10^4 cells/well. A stock solution of the compounds was prepared in DMSO. DMSO was added to all treatment media such that the final DMSO concentration was the same in all treatment groups within a given experiment and was always less than 0.1%. The compounds were fed in serum free media. MCF10A mammary epithelial cell's viable number was determined by MTT colorimetric assay. […] IC50 values were calculated by non-linear regression using statistical software. The selectivity index indicated in the table represents the IC50 value for the MCF 10A cell line divided by the IC50 value for the +SA cell line.

For test [5], the system named is MCF7 human breast cancer cell line. The test is described as follows: MTT assay of MCF7 cells. The test is classed as cell-based. The note with it: Homo sapiens, media containing 1% fetal bovine serum. On the procedure:
as §1

Regarding `CC(C)=CCC/C(C)=C/CC/C(C)=C/CC[C@]1(C)CCc2c3c(cc(C)c2O1)OCN(CCCCC(=O)O)C3` [Compound 20, 5-((R)-6,8-dimethyl-8-((3E,7E)-4,8,12-trimethyltrideca-3,7,11-trienyl)-9,10-dihydrochromeno[5,6-e][1,3]oxazin-2(1H,3H,8H)-yl)pentanoic acid], the “antiproliferative activity against +SA mammary tumor cells (in words)” value (“antiproliferative activity” below) in test [1] is “strong activity but less so than the aforementioned compounds”.
In the case of `CC(C)=CCC/C(C)=C/CC/C(C)=C/CC[C@]1(C)CCc2c3c(cc(C)c2O1)OCN(Cc1cccc([N+](=O)[O-])c1)C3` [Compound 29, (R)-6,8-dimethyl-2-(3-nitrobenzyl)-8-((3E,7E)-4,8,12-trimethyltrideca-3,7,11-trienyl)-1,2,3,8,9,10-hexahydrochromeno[5,6-e][1,3]oxazine], the “antiproliferative activity” value in test [1] is “inactive”. The inhibition (commonly the change of the read-out against control, counted positive when it falls) at 5 µM in test [2] (Homo sapiens, MDA-MB-231, 5 μM dose, 24 h, wound-healing assay) is more than 50%.
Consider `CC(C)=CCC/C(C)=C/CC/C(C)=C/CC[C@]1(C)CCc2cc(O)c(CO)c(C)c2O1` [Compound 34, (R)-7-(hydroxymethyl)-2,8-dimethyl-2-((3E,7E)-4,8,12-trimethyltrideca-3,7,11-trienyl)chroman-6-ol], for which, in test [1] (Mus musculus, +SA cell), the IC50 (as a rule, the concentration that inhibits the measured activity by half) was not below 6600 nM.
In the case of `CC(C)=CCC/C(C)=C/CC/C(C)=C/CC[C@]1(C)CCc2cc(O)cc(C)c2O1` [Compound 2, δ-tocotrienol, reference compound], the IC50 in test [1] was 3000 nM; in test [2] (MDA-MB-231, wound-healing assay, dose response, read-out: IC50 antimigratory activity) it was more than 40000 nM.
Consider `CCOC(CCN1COc2c(C)c(C)c3c(c2C1)CC[C@@](C)(CC/C=C(\C)CC/C=C(\C)CCC=C(C)C)O3)OCC` [Compound 14, (R)-2-(3,3-diethoxypropyl)-5,6,8-trimethyl-8-((3E,7E)-4,8,12-trimethyltrideca-3,7,11-trienyl)-1,2,3,8,9,10-hexahydrochromeno[5,6-e][1,3]oxazine], for which, in test [1], the “antiproliferative activity” value is given as “significantly decreased activity”.
Consider `CC(C)=CCC/C(C)=C/CC/C(C)=C/CC[C@]1(C)CCc2c(CO)c(O)c(C)c(C)c2O1` [Compound 32, (R)-5-(hydroxymethyl)-2,7,8-trimethyl-2-((3E,7E)-4,8,12-trimethyltrideca-3,7,11-trienyl)chroman-6-ol], for which the half-inhibitory concentration (IC50) in test [1] (Mus musculus, +SA cell) is 2600 nM.
In the case of `COc1ccc(CCN2COc3c(C)c(C)c4c(c3C2)CC[C@@](C)(CC/C=C(\C)CC/C=C(\C)CCC=C(C)C)O4)cc1OC` [Compound 23, (R)-2-(3,4-dimethoxyphenethyl)-5,6,8-trimethyl-8-((3E,7E)-4,8,12-trimethyltrideca-3,7,11-trienyl)-1,2,3,8,9,10-hexahydrochromeno[5,6-e][1,3]oxazine], the IC50 in test [3] was more than 50000 nM; in test [4] (MCF-10A, MCF10A cells, Table II, non-linear regression, read-out: MCF10A (IC50)), 700 nM; in test [4] (MCF 10A non-tumorigenic cells, Table I, read-out: IC50 MCF 10A), 700 nM; in test [5] it was more than 20000 nM. The Selectivity index in test [4] (IC50 for MCF 10A divided by IC50 for +SA cell line) was found to be 0.39. Besides, in test [1], the “antiproliferative activity” value is “very high activity”.
On to `CC(C)=CCC/C(C)=C/CC/C(C)=C/CC[C@]1(C)CCc2c3c(c(C)c(C)c2O1)OCN(CC1CCNCC1)C3` [Compound 16, (R)-5,6,8-trimethyl-2-(piperidin-4-ylmethyl)-8-((3E,7E)-4,8,12-trimethyltrideca-3,7,11-trienyl)-1,2,3,8,9,10-hexahydrochromeno[5,6-e][1,3]oxazine], for which the IC50 in test [3] is 800 nM; in test [5], more than 20000 nM. In addition, the “antiproliferative activity” value in test [1] was “strong activity”.
With `CC(C)=CCC/C(C)=C/CC/C(C)=C/CC[C@]1(C)CCc2c(CO)c(O)cc(C)c2O1` [Compound 33, (R)-5-(hydroxymethyl)-2,8-dimethyl-2-((3E,7E)-4,8,12-trimethyltrideca-3,7,11-trienyl)chroman-6-ol], the half-inhibitory concentration (IC50) in test [1] (Mus musculus, +SA cell) was not below 6600 nM.
For the molecule `CC(C)=CCC/C(C)=C/CC/C(C)=C/CC[C@]1(C)CCc2c3c(cc(C)c2O1)OCN(C)C3` [Compound 4, (R)-2,6,8-trimethyl-8-((3E,7E)-4,8,12-trimethyltrideca-3,7,11-trienyl)-1,2,3,8,9,10-hexahydrochromeno[5,6-e][1,3]oxazine], the half-inhibitory concentration (IC50) in test [1] (Mus musculus, +SA cell) was in the range of 1200 to 2200 nM.
Turning to `CC(C)=CCC/C(C)=C/CC/C(C)=C/CC[C@]1(C)CCc2c3c(c(C)c(C)c2O1)OCN(Cc1cccc([N+](=O)[O-])c1)C3` [Compound 28, (R)-5,6,8-trimethyl-2-(3-nitrobenzyl)-8-((3E,7E)-4,8,12-trimethyltrideca-3,7,11-trienyl)-1,2,3,8,9,10-hexahydrochromeno[5,6-e][1,3]oxazine], the “antiproliferative activity” value in test [1] is given as “significant activity but less so than Compounds 20”.
With `CC(C)=CCC/C(C)=C/CC/C(C)=C/CC[C@]1(C)CCc2c3c(c(C)c(C)c2O1)OCN(C)C3` [Compound 3, (R)-2,5,6,8-tetramethyl-8-((3E,7E)-4,8,12-trimethyltrideca-3,7,11-trienyl)-1,2,3,8,9,10-hexahydrochromeno[5,6-e][1,3]oxazine], in test [1] (Mus musculus, +SA cell), the IC50 is 1200 to 2200 nM.
